Results published in US11331299B2, “Medicinal use of serrulatane diterpenes” (The University of Sydney, priority 2016, dated 2022).

Legend:
[1] = target: T1, G9a (h) (Homo sapiens, UniProt Q96KQ7); test: Epigenetic enzyme assay, Methyltransferases (MTs); assay type: biochemical; conditions: for % Inhibition of Control Values / inhibition at 10 µM: 10 μM; for inhibition at 10 µM: read-out: % Inhibition of Control Values; for IC50: Table 11, inhibition/concentration-response curve
T1 sequence (Q96KQ7 1-1210): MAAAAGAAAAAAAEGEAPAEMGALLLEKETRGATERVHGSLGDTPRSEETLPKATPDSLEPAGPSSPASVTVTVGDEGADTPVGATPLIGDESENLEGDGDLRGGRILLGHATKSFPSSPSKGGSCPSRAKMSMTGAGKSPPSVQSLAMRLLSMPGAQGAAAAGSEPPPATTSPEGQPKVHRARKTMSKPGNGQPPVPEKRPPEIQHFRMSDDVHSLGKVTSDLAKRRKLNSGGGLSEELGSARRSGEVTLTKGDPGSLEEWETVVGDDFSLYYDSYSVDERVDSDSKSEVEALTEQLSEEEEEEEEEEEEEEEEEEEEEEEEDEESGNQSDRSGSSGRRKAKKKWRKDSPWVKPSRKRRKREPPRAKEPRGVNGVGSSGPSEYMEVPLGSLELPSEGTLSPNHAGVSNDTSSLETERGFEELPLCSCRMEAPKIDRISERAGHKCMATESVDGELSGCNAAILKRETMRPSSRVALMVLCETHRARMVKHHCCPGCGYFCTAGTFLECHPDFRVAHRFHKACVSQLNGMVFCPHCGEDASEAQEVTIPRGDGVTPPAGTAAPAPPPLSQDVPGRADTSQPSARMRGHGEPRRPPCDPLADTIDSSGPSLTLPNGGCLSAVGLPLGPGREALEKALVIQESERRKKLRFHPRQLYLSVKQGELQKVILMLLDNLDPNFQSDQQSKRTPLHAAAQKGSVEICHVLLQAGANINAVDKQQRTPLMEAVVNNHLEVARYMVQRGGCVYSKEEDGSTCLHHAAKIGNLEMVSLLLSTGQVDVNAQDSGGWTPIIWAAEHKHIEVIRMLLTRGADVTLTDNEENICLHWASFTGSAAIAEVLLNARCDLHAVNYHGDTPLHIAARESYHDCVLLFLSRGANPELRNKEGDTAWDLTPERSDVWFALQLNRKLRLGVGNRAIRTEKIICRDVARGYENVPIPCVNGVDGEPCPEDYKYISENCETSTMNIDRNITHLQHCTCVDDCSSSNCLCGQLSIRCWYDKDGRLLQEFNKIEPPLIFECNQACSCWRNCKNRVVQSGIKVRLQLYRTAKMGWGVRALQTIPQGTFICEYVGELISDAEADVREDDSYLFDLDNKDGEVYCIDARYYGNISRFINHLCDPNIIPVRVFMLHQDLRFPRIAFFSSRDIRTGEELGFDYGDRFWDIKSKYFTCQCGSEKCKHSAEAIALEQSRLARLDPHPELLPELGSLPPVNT

[2] = target: T2, Angiotensin Converting Enzyme (Oryctolagus cuniculus, UniProt P12822); test: Peptidase, Angiotensin Converting Enzyme; assay type: biochemical, Rabbit; conditions: assay year 2015
T2 construct: from tissue; host or cells: rabbit lung
T2 sequence (P12822 34-1310): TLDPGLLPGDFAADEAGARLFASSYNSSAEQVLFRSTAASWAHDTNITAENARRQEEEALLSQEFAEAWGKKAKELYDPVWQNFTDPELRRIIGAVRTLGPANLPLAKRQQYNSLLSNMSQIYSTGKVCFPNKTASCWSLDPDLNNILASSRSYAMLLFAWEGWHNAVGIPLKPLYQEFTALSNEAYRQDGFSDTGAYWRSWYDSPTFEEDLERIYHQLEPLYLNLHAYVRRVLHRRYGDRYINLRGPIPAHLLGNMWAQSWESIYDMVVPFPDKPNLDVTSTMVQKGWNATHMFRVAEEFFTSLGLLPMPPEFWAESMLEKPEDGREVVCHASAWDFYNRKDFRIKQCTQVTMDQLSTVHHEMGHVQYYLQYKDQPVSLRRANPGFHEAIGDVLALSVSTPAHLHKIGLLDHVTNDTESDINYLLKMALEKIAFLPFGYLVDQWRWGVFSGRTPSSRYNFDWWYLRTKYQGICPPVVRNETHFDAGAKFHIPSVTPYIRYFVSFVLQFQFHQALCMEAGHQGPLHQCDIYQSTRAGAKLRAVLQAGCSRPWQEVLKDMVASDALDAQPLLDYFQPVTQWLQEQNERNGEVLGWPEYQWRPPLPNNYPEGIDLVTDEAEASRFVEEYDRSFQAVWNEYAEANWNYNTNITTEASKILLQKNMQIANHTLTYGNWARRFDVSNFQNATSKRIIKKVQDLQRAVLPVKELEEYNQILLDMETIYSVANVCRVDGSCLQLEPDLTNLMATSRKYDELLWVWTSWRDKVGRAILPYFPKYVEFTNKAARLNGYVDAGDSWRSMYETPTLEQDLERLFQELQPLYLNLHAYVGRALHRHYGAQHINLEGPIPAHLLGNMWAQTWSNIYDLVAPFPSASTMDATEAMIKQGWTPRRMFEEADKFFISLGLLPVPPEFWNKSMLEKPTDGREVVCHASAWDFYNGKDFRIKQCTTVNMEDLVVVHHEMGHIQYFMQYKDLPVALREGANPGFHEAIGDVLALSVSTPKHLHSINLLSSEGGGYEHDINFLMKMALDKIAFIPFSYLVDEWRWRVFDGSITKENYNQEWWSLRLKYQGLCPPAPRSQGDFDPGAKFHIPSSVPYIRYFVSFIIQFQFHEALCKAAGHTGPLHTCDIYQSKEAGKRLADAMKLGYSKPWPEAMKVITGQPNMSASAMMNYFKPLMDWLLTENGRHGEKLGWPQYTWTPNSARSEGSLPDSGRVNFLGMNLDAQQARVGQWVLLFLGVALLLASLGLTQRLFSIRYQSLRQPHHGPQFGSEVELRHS
Method: The in vitro pharmacological studies were conducted by Eurofins PanLab (Taiwan) using the parameters shown in Table 13 with respect to appropriate literature references.

SMILES | % Inhibition of Control Values [1] | inhibition at 10 µM [1] | IC50 [1] | % control response at 10 µM [2]
CC(C)=CCC[C@H](CO)[C@@H]1CC[C@@H](C)c2c1cc(C)c(O)c2O [Compound 1, 7,8,18-trihydroxyserrulat-14-ene] | strong inhibitor | 86% | 11 µM | 0%
CC(C)=CCC[C@@H]1C(O)Oc2c(C)cc(O)c3c2[C@H]1CC[C@H]3C (some centres unmarked) [Compound 2, 5,18-epoxyserrulat-14-en-8,18-diol] | weaker | 64% | 5.4 µM | -3%
CC(C)=CCC[C@@H]1COc2c(C)cc(O)c3c2[C@H]1CC[C@H]3C [Compound 3, 5,18-epoxy-8-hydroxyserrulat-14-ene] | weaker | 49% | – | -3%
